Data: PubChem BioAssay (NCI)
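Assay format: 96-well plates, 48-hour exposure. Abbreviation: GI50, concentration required for 50% inhibition of growth. Definition used: TGI = concentration required for complete inhibition of growth.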

Key:
Assay in all cases: growth of human tumour cells (NCI), 48 h
786-0 renal = tested on: 786-0 renal
A498 renal = tested on: A498 renal
A549 NSCLC = tested on: A549 NSCLC
ACHN renal = tested on: ACHN renal
BT-549 breast = tested on: BT-549 breast
CAKI-1 renal = tested on: CAKI-1 renal
CCRF-CEM leukemia = tested on: CCRF-CEM leukemia
COLO 205 colon = tested on: COLO 205 colon
DU-145 prostate = tested on: DU-145 prostate
EKVX NSCLC = tested on: EKVX NSCLC
HCC-2998 colon = tested on: HCC-2998 colon
HCT-116 colon = tested on: HCT-116 colon
HCT-15 colon = tested on: HCT-15 colon
HL-60(TB) leukemia = tested on: HL-60(TB) leukemia
HOP-62 NSCLC = tested on: HOP-62 NSCLC
HOP-92 NSCLC = tested on: HOP-92 NSCLC
HS 578T breast = tested on: HS 578T breast
HT29 colon = tested on: HT29 colon
IGROV1 ovarian = tested on: IGROV1 ovarian
K-562 leukemia = tested on: K-562 leukemia
KM12 colon = tested on: KM12 colon
LOX IMVI melanoma = tested on: LOX IMVI melanoma
M14 melanoma = tested on: M14 melanoma
MALME-3M melanoma = tested on: MALME-3M melanoma
MCF7 breast = tested on: MCF7 breast
MDA-MB-231 breast = tested on: MDA-MB-231 breast
MDA-MB-435 = tested on: MDA-MB-435
MOLT-4 leukemia = tested on: MOLT-4 leukemia
NCI-H226 lung = tested on: NCI-H226 lung
NCI-H23 lung = tested on: NCI-H23 lung
NCI-H460 lung = tested on: NCI-H460 lung
NCI-H522 lung = tested on: NCI-H522 lung
NCI/ADR-RES ovarian = tested on: NCI/ADR-RES ovarian
OVCAR-3 ovarian = tested on: OVCAR-3 ovarian
OVCAR-4 ovarian = tested on: OVCAR-4 ovarian
OVCAR-5 ovarian = tested on: OVCAR-5 ovarian
OVCAR-8 ovarian = tested on: OVCAR-8 ovarian
PC-3 prostate = tested on: PC-3 prostate
RPMI-8226 leukemia = tested on: RPMI-8226 leukemia
RXF 393 renal = tested on: RXF 393 renal
SF-268 CNS = tested on: SF-268 CNS
SF-295 CNS = tested on: SF-295 CNS
SF-539 CNS = tested on: SF-539 CNS
SK-MEL-2 melanoma = tested on: SK-MEL-2 melanoma
SK-MEL-28 melanoma = tested on: SK-MEL-28 melanoma
SK-MEL-5 melanoma = tested on: SK-MEL-5 melanoma
SK-OV-3 ovarian = tested on: SK-OV-3 ovarian
SN12C renal = tested on: SN12C renal
SNB-19 CNS = tested on: SNB-19 CNS
SNB-75 CNS = tested on: SNB-75 CNS
SR leukemia = tested on: SR leukemia
SW-620 colon = tested on: SW-620 colon
T-47D breast = tested on: T-47D breast
TK-10 renal = tested on: TK-10 renal
U251 CNS = tested on: U251 CNS
UACC-257 melanoma = tested on: UACC-257 melanoma
UACC-62 melanoma = tested on: UACC-62 melanoma
UO-31 renal = tested on: UO-31 renal

OC(CNc1ccnc2cc(Cl)ccc12)CNC1CCCCC1 (stereo unspecified)
GI50 (786-0 renal): 11.8 µM | TGI (786-0 renal): 24.8 µM | GI50 (A498 renal): 1.52 µM | TGI (A498 renal): 8.16 µM | GI50 (A549 NSCLC): 8.12 µM | TGI (A549 NSCLC): 21.7 µM | GI50 (ACHN renal): 6.06 µM | TGI (ACHN renal): 19.4 µM | GI50 (BT-549 breast): 3.69 µM | TGI (BT-549 breast): 16.7 µM | GI50 (CAKI-1 renal): 1.84 µM | TGI (CAKI-1 renal): 4.05 µM | GI50 (CCRF-CEM leukemia): 7.29 µM | TGI (CCRF-CEM leukemia): 42.4 µM | GI50 (COLO 205 colon): 1.69 µM | TGI (COLO 205 colon): 3.31 µM | GI50 (DU-145 prostate): 13.9 µM | TGI (DU-145 prostate): 28.2 µM | GI50 (EKVX NSCLC): 6.15 µM | TGI (EKVX NSCLC): 27 µM | GI50 (HCC-2998 colon): 3.79 µM | TGI (HCC-2998 colon): 11 µM | GI50 (HCT-116 colon): 4.66 µM | TGI (HCT-116 colon): 16.7 µM | GI50 (HCT-15 colon): 3.78 µM | TGI (HCT-15 colon): 17 µM | GI50 (HL-60(TB) leukemia): 10.9 µM | TGI (HL-60(TB) leukemia): 28.7 µM | GI50 (HOP-62 NSCLC): 12.3 µM | TGI (HOP-62 NSCLC): 26.3 µM | GI50 (HOP-92 NSCLC): 1.42 µM | TGI (HOP-92 NSCLC): 7.12 µM | GI50 (HS 578T breast): 4.95 µM | TGI (HS 578T breast): 23.8 µM | GI50 (HT29 colon): 3.26 µM | TGI (HT29 colon): 12.2 µM | GI50 (IGROV1 ovarian): 10.1 µM | TGI (IGROV1 ovarian): 24.4 µM | GI50 (K-562 leukemia): 2.07 µM | TGI (K-562 leukemia): 5.17 µM | GI50 (KM12 colon): 13 µM | TGI (KM12 colon): 27.3 µM | GI50 (LOX IMVI melanoma): 4.57 µM | TGI (LOX IMVI melanoma): 16.7 µM | GI50 (M14 melanoma): 1.65 µM | TGI (M14 melanoma): 3.11 µM | GI50 (MALME-3M melanoma): 1.89 µM | TGI (MALME-3M melanoma): 3.8 µM | GI50 (MCF7 breast): 7.36 µM | TGI (MCF7 breast): 21.9 µM | GI50 (MDA-MB-231 breast): 4.21 µM | TGI (MDA-MB-231 breast): 18.7 µM | GI50 (MDA-MB-435): 1.7 µM | TGI (MDA-MB-435): 3.28 µM | GI50 (MOLT-4 leukemia): 9.15 µM | TGI (MOLT-4 leukemia): 31.9 µM | GI50 (NCI-H226 lung): 12.9 µM | TGI (NCI-H226 lung): 34.9 µM | GI50 (NCI-H23 lung): 15.9 µM | TGI (NCI-H23 lung): 41 µM | GI50 (NCI-H460 lung): 13.8 µM | TGI (NCI-H460 lung): 30.2 µM | GI50 (NCI-H522 lung): 2.72 µM | TGI (NCI-H522 lung): 6.55 µM | GI50 (NCI/ADR-RES ovarian): 18 µM | TGI (NCI/ADR-RES ovarian): 53.9 µM | GI50 (OVCAR-3 ovarian): 15 µM | TGI (OVCAR-3 ovarian): 34.7 µM | GI50 (OVCAR-4 ovarian): 3.6 µM | TGI (OVCAR-4 ovarian): 23.8 µM | GI50 (OVCAR-5 ovarian): 12.6 µM | TGI (OVCAR-5 ovarian): 38.4 µM | GI50 (OVCAR-8 ovarian): 5.07 µM | TGI (OVCAR-8 ovarian): 19.9 µM | GI50 (PC-3 prostate): 8.08 µM | TGI (PC-3 prostate): 28.7 µM | GI50 (RPMI-8226 leukemia): 10.1 µM | TGI (RPMI-8226 leukemia): 36.4 µM | GI50 (RXF 393 renal): 2.5 µM | TGI (RXF 393 renal): 8.72 µM | GI50 (SF-268 CNS): 8.23 µM | TGI (SF-268 CNS): 21.9 µM | GI50 (SF-295 CNS): 2.13 µM | TGI (SF-295 CNS): 4.9 µM | GI50 (SF-539 CNS): 1.76 µM | TGI (SF-539 CNS): 3.38 µM | GI50 (SK-MEL-2 melanoma): 2.28 µM | TGI (SK-MEL-2 melanoma): 4.86 µM | GI50 (SK-MEL-28 melanoma): 1.76 µM | TGI (SK-MEL-28 melanoma): 3.31 µM | GI50 (SK-MEL-5 melanoma): 1.77 µM | TGI (SK-MEL-5 melanoma): 3.34 µM | GI50 (SK-OV-3 ovarian): 10.5 µM | TGI (SK-OV-3 ovarian): 32.8 µM | GI50 (SN12C renal): 12 µM | TGI (SN12C renal): 48.4 µM | GI50 (SNB-19 CNS): 22.4 µM | TGI (SNB-19 CNS): 75.5 µM | GI50 (SNB-75 CNS): 2.1 µM | TGI (SNB-75 CNS): 8.31 µM | GI50 (SR leukemia): 1.95 µM | TGI (SR leukemia): 5.13 µM | GI50 (SW-620 colon): 4.79 µM | TGI (SW-620 colon): 18.3 µM | GI50 (T-47D breast): 4.54 µM | TGI (T-47D breast): 18.7 µM | GI50 (TK-10 renal): 3.61 µM | TGI (TK-10 renal): 13.6 µM | GI50 (U251 CNS): 2.14 µM | TGI (U251 CNS): 5.37 µM | GI50 (UACC-257 melanoma): 1.78 µM | TGI (UACC-257 melanoma): 3.33 µM | GI50 (UACC-62 melanoma): 2.15 µM | TGI (UACC-62 melanoma): 5.2 µM | GI50 (UO-31 renal): 2.22 µM | TGI (UO-31 renal): 11 µM
